According to patent publication US5610297A, “Peptides ketoamides” (Georgia Tech Research Corp., priority 1995, dated 1997):

How the values were obtained:
[1] = biological target: T1, Calpain I from human erythrocytes (Homo sapiens, UniProt P07384); assay: Inhibition of calpain I (Suc-Leu-Tyr-AMC hydrolysis); assay type: biochemical
T1 construct: Calpain I was purified from human erythrocytes; from tissue; host or cells: human erythrocytes
T1 sequence (P07384 1-714): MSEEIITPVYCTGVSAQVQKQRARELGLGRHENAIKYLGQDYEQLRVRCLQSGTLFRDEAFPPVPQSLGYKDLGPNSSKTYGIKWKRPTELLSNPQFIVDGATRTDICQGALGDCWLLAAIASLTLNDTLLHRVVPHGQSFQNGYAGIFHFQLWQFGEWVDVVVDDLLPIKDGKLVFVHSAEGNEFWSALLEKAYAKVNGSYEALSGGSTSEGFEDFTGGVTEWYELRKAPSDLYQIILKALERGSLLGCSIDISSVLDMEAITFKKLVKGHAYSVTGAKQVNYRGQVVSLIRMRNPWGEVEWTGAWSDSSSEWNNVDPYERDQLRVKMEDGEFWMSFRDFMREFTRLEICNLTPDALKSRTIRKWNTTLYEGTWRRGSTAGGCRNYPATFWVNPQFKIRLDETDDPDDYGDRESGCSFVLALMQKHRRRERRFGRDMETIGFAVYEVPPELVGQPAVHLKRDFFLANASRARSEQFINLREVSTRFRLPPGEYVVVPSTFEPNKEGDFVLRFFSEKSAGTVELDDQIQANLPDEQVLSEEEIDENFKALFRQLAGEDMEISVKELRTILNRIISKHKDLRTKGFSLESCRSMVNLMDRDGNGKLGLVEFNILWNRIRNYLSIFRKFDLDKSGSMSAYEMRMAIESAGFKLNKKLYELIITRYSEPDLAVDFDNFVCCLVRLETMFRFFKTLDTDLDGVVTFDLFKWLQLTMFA
T1 sequence (P04632 1-268 partner): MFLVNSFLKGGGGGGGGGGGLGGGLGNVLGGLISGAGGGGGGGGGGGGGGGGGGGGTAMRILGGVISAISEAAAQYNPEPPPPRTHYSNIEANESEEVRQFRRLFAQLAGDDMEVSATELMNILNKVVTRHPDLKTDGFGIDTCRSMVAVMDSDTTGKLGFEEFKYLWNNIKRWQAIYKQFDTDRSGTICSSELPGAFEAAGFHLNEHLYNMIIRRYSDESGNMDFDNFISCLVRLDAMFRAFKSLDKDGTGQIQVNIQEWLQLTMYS
Experimental: (§1) Materials and Methods. HEPES, heparin, and A23187 were obtained from Calbiochem. Suc-Leu-Tyr-AMC and chromogenic substrates were obtained from Sigma. Calpain I was purified from human erythrocytes according to the method of Kitahara (Kitahara et al., J. Biochem. 95, 1759-1766) omitting the Blue-Sepharose step. Calpain II from rabbit muscle and cathepsin B were purchased from Sigma. Papain was purchased from Calbiochem.
(§2) Assay of Inhibitory Potency. Peptide α-ketoamides were assayed as reversible enzyme inhibitors. Various concentrations of inhibitors in Me2 SO were added to the assay mixture which contained buffer and substrate. The reaction was started by the addition of the enzyme and the hydrolysis rates were followed spectrophotometrically or fluorimetrically.
(§3) Calpain I from human erythrocytes and calpain II from rabbit were assayed using Suc-Leu-Tyr-AMC [Sasaki et al., J. Biol. Chem. 259, 12489-12494 (1984); incorporated herein by reference], and the AMC (7-amino-4-methylcoumarin) release was followed fluorimetrically (excitation at 380 nm, and emmision at 460 nm). Calpains were assayed in 25 mM Tris pH=8.0, 10 mM CaCl2. Fluorescence was followed using a Gilson FL-1A fluorometer or a Perkin-Elmer 203 Fluorescence spectrometer. Cathepsin B was assayed in 20 mM sodium acetate pH=5.2, 0.5 mM dithiothreitol using Bz-Phe-Val-Arg-p-nitroanilide as substrate. Alternately, cathepsin B was assayed with Z-Arg-Arg-AFC [Barrett and Kirschke, Methods Enzymol. 80, 535-561 (1981); incorporated herein by reference], and the AFC (7-amino-4-trifluoromethylcoumarin) release was followed fluorimetrically (excitation at 400 nm and emmision at 505 nm). Papain was assayed in 100 mM KPO4, 1 mM EDTA, 2.5 mM cysteine pH=6.0 using Bz-Arg-AMC or Bz-Arg-NA [Kanaoka et al., Chem. Plmrm. Bull. 25, 3126-3128 (1977); incorporated herein by reference] as a substrate. The AMC (7-amino-4-methylcoumarin) release was followed fluorimetrically (excitation at 380 nm, and emmision at 460 nm). Enzymatic hydrolysis rates were measured at various substrate and inhibitor concentrations, and KI values were determined by either Lineweaver-Burk plots or Dixon plots.
(§4) A 0.1M Hepes, 0.5M NaCl, pH 7.5 buffer was utilized for human leukocyte elastase (HLE), porcine pancreatic elastase (PPE), chymotrypsin and cathepsin G. A 0.1 Hepes, 0.01M CaCl2, pH 7.5 buffer was utilized for trypsin, plasmin, and coagulation enzymes. A 50 mM Tris-HCl, 2 mM EDTA, 5 mM cysteine, pH 7.5 was used as a buffer for papain. A 88 mM KH2 PO4, 12 mM Na2 HPO4, 1.33 mM EDTA, 2.7 mM cysteine, pH 6.0 solution was used as a buffer for cathepsin B. A 20 mM Hepes, 10 mM CaCl2, 10 mM mercatoethanol, pH 7.2 buffer was utilized for calpain I and calpain II.

[2] = biological target: Calpain II from rabbit muscle; assay: Inhibition of calpain II (Suc-Leu-Tyr-AMC hydrolysis); assay type: biochemical
Experimental: as §1, §2, §3, §4

cathepsin B = assay: Inhibition of cathepsin B; assay type: biochemical; details: read-out: KI Cath B
Experimental: as §1, §2, §3, §4

chymotrypsin = chymotrypsin (Bos taurus, UniProt P00766, DEL14-15/DEL147-148); assay: Inhibition of chymotrypsin (Suc-Val-Pro-Phe-NA hydrolysis); assay type: biochemical, bovine
Experimental: as §2, §4
(§5) HLE and PPE were assayed with MeO-Suc-Ala-Ala-Pro-Val-NA and Suc-Ala-Ala-Ala-NA, respectively [Nakajima et al., J. Biol. Chem. 254, 4027-4032 (1979); incorporated herein by reference]. Human leukocyte cathepsin G and chymotrypsin Aα were assayed with Suc-Val-Pro-Phe-NA [Tanaka et al., Biochemistry 24, 2040-2047 (1985); incorporated herein by reference]. The hydrolysis of peptide 4-nitroanilides was measured at 410 nm [ε410 =8800 M^-1 cm^-1; Erlanger et al., Arch. Biochem. Biophys. 95, pp 271-278 (1961); incorporated herein by reference]. Trypsin, thrombin, human plasma kallikrein, porcine pancreatic kallikrein, human factor XIa, and human plasmin were assayed with Z-Arg-SBzl or Z-Gly-Arg-SBu-i [McRae et al., Biochemistry 20, 7196-7206 (1981); incorporated herein by reference]. All peptide thioester hydrolysis rates were measured with assay mixtures containing 4,4'-dithiodipyridine [ε324 =19800 M^-1 cm^-1; Grasetti & Murray, Arch. Biochem. Biophys. 119, 41-49 (1967); incorporated herein by reference].

[3] = biological target: porcine pancreatic elastase (PPE) (Sus scrofa, UniProt P00772); assay: Inhibition of PP elastase (Suc-Ala-Ala-Ala-NA hydrolysis); assay type: biochemical
porcine pancreatic elastase (PPE), sequence (P00772 27-266): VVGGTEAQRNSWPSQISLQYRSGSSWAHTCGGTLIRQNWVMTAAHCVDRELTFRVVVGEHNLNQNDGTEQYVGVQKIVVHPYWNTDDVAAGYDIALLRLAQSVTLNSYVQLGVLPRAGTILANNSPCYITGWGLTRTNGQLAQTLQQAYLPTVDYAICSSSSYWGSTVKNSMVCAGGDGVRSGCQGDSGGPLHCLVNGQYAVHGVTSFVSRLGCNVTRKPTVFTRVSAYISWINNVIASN
Experimental: as §2, §4, §5

Half-life in plasma = assay type: in vitro ADME; details: unit inferred, unit assumed

Row | SMILES | Ki [1] | Ki [2] | Ki (cathepsin B) | Ki (chymotrypsin) | Ki [3] | t 1/2 plasma (Half-life in plasma) | better inhibitor of calpain I than Z-Leu-Phe-CONH-Et ([1]; relative to Z-Leu-Phe-CONH-Et)
1 | CCNC(=O)C(=O)[C@H](Cc1ccccc1)NC(=O)[C@H](CC(C)C)NC(=O)OCc1ccccc1 [Z--Leu--Phe--CONH--Et, Z-Leu-Phe-CONH-Et] | 7 µM | 0.32 µM | 6 µM | 73 µM | > 150 µM | > 1 h | –
2 | CCNC(=O)C(=O)[C@H](CC)NC(=O)[C@H](CC(C)C)NC(=O)OCc1ccccc1 [Z--Leu--Abu--CONH--Et, Z-Leu-Abu-CONH-Et] | 0.5 µM | 0.23 µM | 2.4 µM | > 150 µM | 65 µM | > 1 h | 14 fold
3 | CCCNC(=O)C(=O)C(Cc1ccccc1)NC(=O)C(CC(C)C)NC(=O)OCc1ccccc1 (stereo not drawn) [Z--Leu--Phe--CONH--nPr, Z-Leu-Phe-CONH-nPr] | 15 µM | 0.05 µM | 3 µM | 18 µM | > 300 µM | > 1 h | –
4 | CCCCNC(=O)C(=O)C(CC)NC(=O)C(CC(C)C)NC(=O)OCc1ccccc1 (stereo not drawn) [Z--Leu--Abu--CONH--nBu, Z-Leu-Abu-CONH-nBu] | 0.2 µM | – | 13 µM | > 300 µM | 5 µM | > 1 h | –
